This passage reports T/C results from PubChem BioAssay AID180 (DTP/NCI, 2004).

Each structure is given as a SMILES string. Several values for one entry are separate records, joined by “and”; a condition that tells them apart may be missing. Equal values may be shown once.

This test concerns BDF1 mice, Adenocarcinoma 755 s.c., tumor weight T/C. Kind of test: NCI In Vivo Anticancer Drug Screen. Data for tumor model Adenocarcinoma 755 (subcutaneous) in B6D2F1 (BDF1) mice. The note with it: endpoint: mean tumor weight, higher = larger tumour. Put shortly:
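Transplantable tumor implanted; mice dosed with compound or vehicle; survival or tumor size recorded; ratio of treated to vehicle control reported.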

What is called T/C is the ratio of treated to control. `NC(C=O)C(O)C(O)C(O)CO` (configuration not stated): the T/C (dose: 250.0 mg/kg/injection, schedule: Q01DX011 (ip), vehicle: carboxymethylcellulose (CMC)) was 104 % of control and 204 % of control; the T/C (dose: 500.0 mg/kg/injection, schedule: Q01DX011 (ip), vehicle: carboxymethylcellulose (CMC)) is 225 % of control; the T/C (dose: 1000.0 mg/kg/injection, schedule: Q01DX011 (ip), vehicle: carboxymethylcellulose (CMC)) is 102 % of control and 110 % of control; the T/C (dose: 2000.0 mg/kg/injection, schedule: Q01DX011 (ip), vehicle: methylcellulose (MC)) was 89 % of control; the T/C (dose: 2500.0 mg/kg/injection, schedule: Q01DX011 (ip), vehicle: methylcellulose (MC)) was 72 % of control.

For `C1CN1c1nc(N2CC2)nc(N2CC2)n1`, the T/C is 90 % of control (dose: 0.03 mg/kg/injection, schedule: Q01DX011 (ip), vehicle: carboxymethylcellulose (CMC)); 80 % of control (dose: 0.05 mg/kg/injection, schedule: Q01DX011 (ip), vehicle: carboxymethylcellulose (CMC)); 36 % of control (dose: 0.1 mg/kg/injection, schedule: Q01DX011 (ip), vehicle: carboxymethylcellulose (CMC)); 65 % of control (dose: 0.1 mg/kg/injection, schedule: Q02DX011 (ip), vehicle: carboxymethylcellulose (CMC)); 49 % of control (dose: 0.2 mg/kg/injection, schedule: Q02DX011 (ip), vehicle: carboxymethylcellulose (CMC)); 8 % of control (dose: 0.5 mg/kg/injection, schedule: Q01DX011 (ip), vehicle: saline). Further, the T/C by setting is: (dose: 49.0 micrograms/kg/injection, schedule: Q01DX011 (ip), vehicle: carboxymethylcellulose (CMC)) 86 % of control; (dose: 67.0 micrograms/kg/injection, schedule: Q01DX011 (ip), vehicle: carboxymethylcellulose (CMC)) 213 % of control; (dose: 98.0 micrograms/kg/injection, schedule: Q01DX011 (ip), vehicle: carboxymethylcellulose (CMC)) 88 % of control; (dose: 134.0 micrograms/kg/injection, schedule: Q01DX011 (ip), vehicle: carboxymethylcellulose (CMC)) 101 % of control; (dose: 150.0 micrograms/kg/injection, schedule: Q01DX011 (ip), vehicle: saline) 63 % of control; (dose: 260.0 micrograms/kg/injection, schedule: Q01DX011 (ip), vehicle: carboxymethylcellulose (CMC)) 57 % of control and 77 % of control. Also, the T/C is, setting by setting: (dose: 268.0 micrograms/kg/injection, schedule: Q01DX011 (ip), vehicle: carboxymethylcellulose (CMC)) 82 % of control; (dose: 300.0 micrograms/kg/injection, schedule: Q01DX011 (ip), vehicle: saline) 33 % of control; (dose: 536.0 micrograms/kg/injection, schedule: Q01DX011 (ip), vehicle: carboxymethylcellulose (CMC)) 18 % of control; (dose: 600.0 micrograms/kg/injection, schedule: Q01DX011 (ip), vehicle: saline) 7 % of control.

Take `CCCCCCCCCCCC(=O)N(CC)CC`: the T/C was 92 % of control (dose: 15.6 mg/kg/injection, schedule: Q01DX011 (ip), vehicle: other); 82 % of control (dose: 31.2 mg/kg/injection, schedule: Q01DX011 (ip), vehicle: other); 84 % of control (dose: 62.5 mg/kg/injection, schedule: Q01DX011 (ip), vehicle: other).

With `Nc1ncnc2c1nc(Br)n2C1CC(O)C(CO)O1` (configuration not stated), the T/C (dose: 30.0 mg/kg/injection, schedule: Q01DX011 (ip), vehicle: carboxymethylcellulose (CMC)) was 89 % of control; the T/C (dose: 60.0 mg/kg/injection, schedule: Q01DX011 (ip), vehicle: carboxymethylcellulose (CMC)) is 89 % of control; the T/C (dose: 120.0 mg/kg/injection, schedule: Q01DX011 (ip), vehicle: carboxymethylcellulose (CMC)) was 75 % of control; the T/C (dose: 240.0 mg/kg/injection, schedule: Q01DX011 (ip), vehicle: carboxymethylcellulose (CMC)) is 123 % of control.

As to `CC(=O)N(C)C`, the T/C was 84 % of control (dose: 125.0 mg/kg/injection, schedule: Q#A X022 (ip), vehicle: saline); 93 % of control and 105 % of control (dose: 250.0 mg/kg/injection, schedule: Q01DX011 (ip), vehicle: saline); 100 % of control (dose: 250.0 mg/kg/injection, schedule: Q01DX011 (sc), vehicle: saline); 64 % of control (dose: 250.0 mg/kg/injection, schedule: Q03DX004 (ip), vehicle: saline); 99 % of control (dose: 500.0 mg/kg/injection, schedule: Q01DX006 (iv), vehicle: saline); 155 % of control (dose: 500.0 mg/kg/injection, schedule: Q01DX011 (im), vehicle: saline). The T/C by setting is: (dose: 500.0 mg/kg/injection, schedule: Q01DX011 (ip), vehicle: saline) 98 % of control and 77 % of control; (dose: 500.0 mg/kg/injection, schedule: Q03DX004 (ip), vehicle: saline) 79 % of control; (dose: 500.0 mg/kg/injection, schedule: Q#A X022 (ip), vehicle: saline) 57 % of control; (dose: 750.0 mg/kg/injection, schedule: Q01DX011 (ip), vehicle: other) 28 % of control; (dose: 750.0 mg/kg/injection, schedule: Q03DX004 (ip), vehicle: saline) 84 % of control; (dose: 1000.0 mg/kg/injection, schedule: Q01DX001 (ip), vehicle: saline) 72 % of control and 84 % of control. Further, the T/C is, setting by setting: (dose: 1000.0 mg/kg/injection, schedule: Q01DX006 (iv), vehicle: saline) 80 % of control; (dose: 1000.0 mg/kg/injection, schedule: Q01DX011 (im), vehicle: saline) 78 % of control; (dose: 1000.0 mg/kg/injection, schedule: Q01DX011 (ip), vehicle: other) 16 % of control; (dose: 1000.0 mg/kg/injection, schedule: Q01DX011 (sc), vehicle: saline) 66 % of control and 71 % of control; (dose: 1000.0 mg/kg/injection, schedule: Q03DX004 (ip), vehicle: saline) 91 % of control; (dose: 1000.0 mg/kg/injection, schedule: Q#A X022 (ip), vehicle: saline) 29 % of control. The T/C (dose: 1250.0 mg/kg/injection, schedule: Q01DX011 (ip), vehicle: other) was 5 % of control; the T/C (dose: 1500.0 mg/kg/injection, schedule: Q03DX004 (ip), vehicle: saline) was 81 % of control; the T/C (dose: 2000.0 mg/kg/injection, schedule: Q01DX006 (iv), vehicle: saline) is 67 % of control; the T/C (dose: 2000.0 mg/kg/injection, schedule: Q01DX011 (im), vehicle: saline) was 22 % of control; the T/C (dose: 2000.0 mg/kg/injection, schedule: Q01DX011 (ip), vehicle: saline) was 16 % of control and 17 % of control; the T/C (dose: 2000.0 mg/kg/injection, schedule: Q01DX011 (oral), vehicle: saline) was 48 % of control and 57 % of control. Besides, the T/C runs as follows: (dose: 2000.0 mg/kg/injection, schedule: Q01DX011 (sc), vehicle: saline) 64 % of control; (dose: 2000.0 mg/kg/injection, schedule: Q03DX004 (ip), vehicle: saline) 69 % of control; (dose: 3000.0 mg/kg/injection, schedule: Q03DX004 (ip), vehicle: saline) 36 % of control; (dose: 4000.0 mg/kg/injection, schedule: Q01DX011 (oral), vehicle: saline) 11 % of control.

Take `CC(C)Cn1cnc2c(SCCCc3ccccc3)nc(N)nc21`: the T/C was 72 % of control (dose: 25.0 mg/kg/injection, schedule: Q01DX011 (ip), vehicle: methylcellulose (MC)); 39 % of control (dose: 50.0 mg/kg/injection, schedule: Q01DX011 (ip), vehicle: methylcellulose (MC)); 10 % of control (dose: 100.0 mg/kg/injection, schedule: Q01DX011 (ip), vehicle: methylcellulose (MC)); 8 % of control (dose: 200.0 mg/kg/injection, schedule: Q01DX011 (ip), vehicle: methylcellulose (MC)).

On to `O=C(CCBr)NCNC(=O)CCBr`, for which the T/C reads like this: (dose: 28.0 mg/kg/injection, schedule: Q01DX011 (ip), vehicle: methylcellulose (MC)) 56 % of control; (dose: 57.0 mg/kg/injection, schedule: Q01DX011 (ip), vehicle: methylcellulose (MC)) 28 % of control.

Regarding `CC/C(=C(/CC)c1ccc(O)cc1)c1ccc(O)cc1`, the T/C is, setting by setting: (dose: 40.0 mg/kg/injection, schedule: Q01DX011 (sc), vehicle: steriod suspending solution) 114 % of control; (dose: 41.2 mg/kg/injection, schedule: Q01DX011 (sc), vehicle: steriod suspending solution) 53 % of control; (dose: 62.5 mg/kg/injection, schedule: Q01DX011 (sc), vehicle: steriod suspending solution) 41 % of control; (dose: 68.66 mg/kg/injection, schedule: Q01DX011 (sc), vehicle: steriod suspending solution) 45 % of control; (dose: 80.0 mg/kg/injection, schedule: Q01DX011 (sc), vehicle: steriod suspending solution) 178 % of control; (dose: 103.0 mg/kg/injection, schedule: Q01DX011 (sc), vehicle: steriod suspending solution) 38 % of control and 44 % of control and 50 % of control. For the same compound, the T/C by setting is: (dose: 125.0 mg/kg/injection, schedule: Q01DX011 (sc), vehicle: steriod suspending solution) 33 % of control; (dose: 160.0 mg/kg/injection, schedule: Q01DX011 (sc), vehicle: steriod suspending solution) 111 % of control; (dose: 250.0 mg/kg/injection, schedule: Q01DX011 (sc), vehicle: steriod suspending solution) 48 % of control; (dose: 320.0 mg/kg/injection, schedule: Q01DX011 (sc), vehicle: steriod suspending solution) 98 % of control.
